Here are results for 26 compounds from PubChem BioAssay (NCI).

Assay in all cases: inhibition of tumour cell growth, NCI panel, 48 h
The test system of test [1] is HCT-116 colon.
For test [2], the system named is SN12C renal.
Test [3] relates to OVCAR-4 ovarian.
The test system of test [4] is U251 CNS.
In test [5] the test system is IGROV1 ovarian.
Test [6] relates to HCT-15 colon.
Test [7] has as its system NCI-H226 lung.
Test [8] relates to LOX IMVI melanoma.
Test [9] relates to SK-MEL-5 melanoma.
Test [10] concerns EKVX NSCLC.

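Five concentrations, 48 hours, 96-well plates. GI50: concentration for 50% inhibition of growth. TGI: concentration producing complete growth inhibition.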

As for `O=C(CC1(O)C(=O)Nc2ccc(Br)cc21)c1ccc(C(=O)NCC2CCC3(CC2)OOC2(CCCCC2)OO3)cc1` (stereo not drawn), the GI50 in [1] was 3.09 µM; in [2], 10.4 µM; in [3], 6.93 µM; in [4], 2.24 µM; in test [5] it was 1.52 µM; in [6], 4.59 µM. The GI50 was 4.7 µM in [7], 1.95 µM in test [8] and 2.4 µM in [9]. In addition, the TGI in [1] turned out to be 30 µM; in [2], 34.9 µM; in [3], 72.3 µM; in [4], 6.51 µM; in test [5] it was 11.6 µM; in [6], 34.3 µM. Further, the TGI is 30 µM in [7], 29 µM in test [8] and 7.09 µM in [9].

As to `Cc1ncc(CO)c(CN)c1O`, the TGI in [1], in [2], in test [3], in [4], in test [5] and in test [6] was over 100 µM throughout. Moreover, the TGI in test [7], in [10], in test [8] and in test [9] was over 100 µM in each case.

Regarding `CC[C@H](Nc1nc(N)nc(N)c1Cl)c1nc2cccc(NCc3ccc(C(=O)NO)cc3)c2c(=O)n1-c1ccccc1`, the GI50 in test [2] was 1.78 µM; in [4] it was 1.51 µM; in [6] it was 2.02 µM; in test [10], 1.75 µM; in [8] it was 1.73 µM; in [9], 1.75 µM. In addition, the TGI in test [2] stood at 4.78 µM; in test [4] it was 3.08 µM; in [6], 4.75 µM; in test [10] it was 3.78 µM; in test [8], 3.17 µM; in [9], 3.22 µM.

With `c1ccc2c[n+](CCCCCCCCCC[n+]3ccc4ccccc4c3)ccc2c1`, the TGI in [1] is over 10 µM; in [2], over 8.94 µM; in test [3], over 10 µM; in [4], over 10 µM; in test [5], over 10 µM; in test [6], over 10 µM. Also, the TGI in test [7], in [10], in test [8] and in test [9] was over 10 µM in each case.

`CN(C)c1ccc2nc3c(C(=O)O)cc(=O)c(O)c-3oc2c1`: the TGI was 80.1 µM in test [1]; 64.6 µM in test [2]; over 100 µM in test [3]; over 100 µM in [4]; over 100 µM in [5]; over 100 µM in test [6]. The TGI was over 100 µM in [7], 81 µM in test [10], over 100 µM in test [8] and 29.3 µM in test [9].

On to `COc1cc2c(cc1OC)C(Cl)C(c1ccc(Cl)cc1)=C2Cl` (stereo not drawn), for which the TGI in [2] stood at 48.6 µM; in [4], 26.6 µM; in [5] it was 48.3 µM; in test [6], 41.4 µM; in [7] it was 50.6 µM; in [10] it was 59.7 µM. Moreover, the TGI in [8] turned out to be 25.5 µM; in test [9] it was 28.3 µM.

For the compound `CC(C)CNc1nc(N)[nH]c(=O)c1NC=O`, the TGI in test [1], in [2], in test [3], in test [4], in test [5] and in test [6] was over 100 µM each time. Further, the TGI in test [7], in test [10], in [8] and in [9] was over 100 µM throughout.

Take `O=C(O)c1ccccn1`: the TGI in test [1], in [2], in test [3], in test [4], in [5] and in [6] was over 100 µM each time. Moreover, the TGI in test [7], in test [10] and in test [9] was over 100 µM each time.

In the case of `NCS(=O)(=O)O`, the TGI in test [1], in test [2], in test [3], in test [4], in test [5] and in test [6] was over 100 µM each time. Besides, the TGI in test [7], in test [10], in test [8] and in test [9] was over 100 µM throughout.

As to `N=C(N)c1ccc(-c2ccc(-c3ccc(Cl)cn3)s2)cc1`, the GI50 in test [6] was 1.61 µM; in test [7], 2.76 µM; in test [9], 1.77 µM. The TGI in [6] was 3.08 µM; in test [7], 12 µM; in test [9], 3.19 µM.

Turning to `COc1cc2ccc1-c1cc(ccc1O)CC1c3cc4c(cc3CCN1C)Oc1c(OC)cc3c(c1O4)C(C2)N(C)CC3` (stereo not drawn), the TGI in [1] was 2.89 µM; in test [2], 3.96 µM; in test [3], 3.72 µM; in test [4] it was 3.07 µM; in test [5], 4.35 µM; in test [6], 3.12 µM. The TGI was 4.08 µM in [7], 4.57 µM in test [10], 3.75 µM in test [8] and 3.52 µM in test [9].

Turning to `CN(C)CCNC(=O)c1cccc2nc3c4ccccc4c4ccccc4c3nc12`, the TGI in test [1] came out at 3.21 µM; in [2], 3.64 µM; in [3], 3.24 µM; in [4], 4.56 µM; in test [5] it was 12.3 µM; in test [6] it was 3.13 µM. Also, the TGI in test [7] amounted to 28.1 µM; in [10], 11 µM; in test [8] it was 3.13 µM; in test [9], 15.7 µM.

As for `CCOC(=O)c1c2c(c(O)c3ccccc3c(O)n(-c3ccc(C)cc3)c1C)C(=O)C=CC2=O`, the TGI was 38.3 µM in test [1]; 58.9 µM in [2]; 29.9 µM in test [3]; 52.9 µM in [4]; over 100 µM in test [5]; 34.7 µM in test [6]. For the same compound, the TGI is over 100 µM in test [7], 85.5 µM in test [10], 38.8 µM in test [8] and 31.9 µM in test [9].

`C[C@@H]1CC[C@H]2C(COC/C=C/COCC3=C(C(F)(F)F)O[C@@H]4O[C@@]5(C)CC[C@H]6[C@H](C)CC[C@@H]3[C@@]46OO5)=C(C(F)(F)F)O[C@@H]3O[C@@]4(C)CC[C@@H]1[C@]32OO4`: the GI50 in test [1] was under 0.01 µM; in [2], 0.0191 µM; in test [3], 0.518 µM; in [4], under 0.01 µM; in test [5], 1.27 µM; in [6], 0.038 µM. For the same compound, the GI50 in [7] was 0.0199 µM; in test [10] it was 0.072 µM; in test [9], 0.0866 µM. For the same compound, the TGI in test [1] is over 100 µM; in test [2] it was 0.685 µM; in [3], over 100 µM; in [4] it was 0.179 µM; in test [5], 98.2 µM; in test [6], 14.2 µM. The TGI is 0.191 µM in test [7], over 100 µM in test [10] and over 100 µM in [9].

On to `CC(C)(C)C1CCC2(CC1)CCN(CCCN1CCOCC1)CC2`, for which the TGI in [1] is over 59.7 µM; in [2] it was over 100 µM; in test [3], over 100 µM; in [4], over 53.3 µM; in test [5] it was over 100 µM; in test [6], over 57.9 µM. Further, the TGI was over 100 µM in [7], over 100 µM in [10], over 52.3 µM in test [8] and 21.4 µM in test [9].

With `O=C1c2ccccc2C(=O)c2c(NCCNC(=O)C3CCCN3)ccc(NCCNC(=O)C3CCCN3)c21` (stereo not drawn), the TGI is 27.5 µM in test [1]; over 100 µM in test [2]; over 100 µM in test [3]; over 100 µM in test [4]; over 100 µM in test [5]; over 100 µM in [6]. For the same compound, the TGI is over 100 µM in test [7], over 100 µM in [10], 1.58 µM in test [8] and over 100 µM in test [9].

For the compound `COc1cnc2c(c1)C(=O)c1c-2n(CCCN2CCNCC2)c(=O)c2cc(Cl)ccc12`, the GI50 was 1.17 µM in test [3] and 1.04 µM in [7]. Moreover, the TGI was determined as 2.73 µM in test [3] and 4.91 µM in [7].

Turning to `Cn1cnc([N+](=O)[O-])c1SCC(=O)O`, the TGI in test [1], in test [2], in [3], in [4], in [5] and in [6] was over 100 µM in each case. Besides, the TGI in test [7], in test [10], in test [8] and in test [9] was over 100 µM throughout.

On to `C[C@H]1CCC/C=C/[C@@H]2C[C@H](O)C[C@H]2[C@H](O)[C@@H](S(=O)CCN)CC(=O)O1` (stereo partly drawn), for which the GI50 in test [1] is 0.0569 µM; in test [2], 0.085 µM; in test [3], under 0.0273 µM; in test [4] it was 0.0538 µM; in test [5], 0.166 µM; in [6], 0.28 µM. For the same compound, the GI50 in test [7] is 0.041 µM; in [10], 0.0891 µM; in [8], 0.031 µM; in [9], 0.015 µM. For the same compound, the TGI was 0.169 µM in [1]; 0.472 µM in [2]; over 100 µM in [4]; 10.8 µM in test [6]; 0.199 µM in test [7]; over 100 µM in test [10]. Moreover, the figures for the TGI in test [8] and in [9] were 0.101 µM and 0.0295 µM, respectively.

Consider `C[n+]1cccc(/C=C/c2ccc3cccc(O)c3n2)c1`, for which the TGI in test [1], in [2], in test [3], in test [4], in test [5] and in test [6] was over 100 µM throughout. Moreover, the TGI in test [7], in test [10], in [8] and in test [9] was over 100 µM in each case.

As to `O=C(c1cc(Br)ccc1O)c1cc(Br)ccc1O`, the TGI came out at 29.4 µM in [1]; 32.6 µM in [2]; 30.2 µM in test [3]; 28.8 µM in test [4]; 27.8 µM in test [5]; 38.5 µM in test [6]. Besides, the TGI in [7] is 42 µM; in test [10], 30.3 µM; in test [8], 36.8 µM; in test [9] it was 25.4 µM.

On to `CCOC(=O)N1c2ccccc2S(=O)(=O)c2ccccc21`, for which the TGI in test [1], in test [2], in [3], in test [4], in test [5] and in test [6] was over 100 µM throughout. Also, the TGI in [7], in [10], in [8] and in test [9] was over 100 µM throughout.

Turning to `COc1ccc(-n2c3c(c4cc(O)ccc42)C(=O)c2ccccc2C3=O)cc1`, the TGI was 1.25 µM in test [1]; 92.9 µM in [2]; over 100 µM in test [3]; 30.8 µM in test [5]; over 100 µM in test [6]; 43 µM in test [10]. Further, the TGI is 58 µM in test [8] and over 100 µM in test [9].

As to `Oc1cc(O)cc(/C=C/c2ccc(O)c(O)c2)c1`, the TGI is 20.9 µM in test [1]; 40.8 µM in test [2]; over 100 µM in test [3]; 42.8 µM in [4]; 32.1 µM in test [5]; over 100 µM in test [6]. The TGI in [7] is 42.1 µM; in [10], over 100 µM; in test [8] it was over 41.7 µM; in test [9] it was over 49.1 µM.

For `Cc1cc(=O)[nH]c(NN2C(Cl)C(=O)C2c2cccc([N+](=O)[O-])c2)n1` (stereo not drawn), the TGI in test [1] turned out to be 49.9 µM; in test [2], 37.6 µM; in test [3] it was 57 µM; in test [4], 47.4 µM; in test [6], 31.5 µM; in test [7], 46.9 µM. In addition, the TGI in test [10] is over 100 µM; in [8], 26.9 µM; in test [9], 33.5 µM.

For the compound `CN(C)c1ccc(C2CC(=O)C(C#N)=C(c3ccccc3)NN2C)cc1` (stereo not drawn), the TGI was over 100 µM in test [1]; over 100 µM in test [2]; over 100 µM in [3]; over 100 µM in test [4]; 32.5 µM in test [6]; over 100 µM in test [7]. Besides, the figures for the TGI in test [8] and in test [9] were over 100 µM and 11.9 µM, respectively.
